# Reference: patent publication US20170101383A1, “DIAMINOTRIAZINE DERIVATIVES AS HERBICIDES” (BASF SE, priority 2014, published 2017)
# Columns and labels:
# Echinocloa crus-galli [1] = assay: greenhouse post-emergence treatment, ECHCG; type: in vivo; conditions: scale 0 to 100
# From the text: (§1) The seeds of the test plants were sown separately for each species. For the post-emergence treatment, the test plants were first grown to a height of 3 to 15 cm, depending on the plant habit, and only then treated with the active ingredients which had been suspended or emulsified in water. For this purpose, the test plants were either sown directly and grown in the same containers, or they were first grown separately as seedlings and transplanted into the test containers a few days prior to treatment. Depending on the species, the plants were kept at 10-25° C. or 20-35° C., respectively. The test period extended over 2 to 4 weeks. During this time, the plants were tended, and their response to the individual treatments was evaluated. Evaluation was carried out using a scale from 0 to 100. 100 means no emergence of the plants, or complete destruction of at least the aerial moieties, and 0 means no damage, or normal course of growth. A moderate herbicidal activity is given at values of at least 60, a good herbicidal activity is given at values of at least 70, and a very good herbicidal activity is given at values of at least 85. The plants used in the greenhouse experiments were of the following species: [table]
# Polygonum convolvulus = assay: greenhouse post-emergence treatment, POLCO; type: in vivo; conditions: 0.500 kg/ha, scale 0 to 100
# From the text: as §1
# Setaria viridis = assay: greenhouse post-emergence treatment, SETVI; type: in vivo; conditions: 0.500 kg/ha, scale 0 to 100
# From the text: as §1
# Alopecurus myosuroides = assay: greenhouse pre-emergence treatment, ALOMY; type: in vivo; conditions: scale 0 to 100
# From the text: (§2) The seeds of the test plants were sown separately for each species. For the pre-emergence treatment, the active ingredients, which had been suspended or emulsified in water, were applied directly after sowing by means of finely distributing nozzles. The containers were irrigated gently to promote germination and growth and subsequently covered with transparent plastic hoods until the plants had rooted. This cover caused uniform germination of the test plants, unless this had been impaired by the active ingredients. Depending on the species, the plants were kept at 10-25° C. or 20-35° C., respectively. The test period extended over 2 to 4 weeks. During this time, the plants were tended, and their response to the individual treatments was evaluated. Evaluation was carried out using a scale from 0 to 100. 100 means no emergence of the plants, or complete destruction of at least the aerial moieties, and 0 means no damage, or normal course of growth. A moderate herbicidal activity is given at values of at least 60, a good herbicidal activity is given at values of at least 70, and a very good herbicidal activity is given at values of at least 85. The plants used in the greenhouse experiments were of the following species: [table]
# Amaranthus retroflexus [2] = assay: greenhouse pre-emergence treatment, AMARE; type: in vivo; conditions: scale 0 to 100
# From the text: as §2
# Apera spica-venti = assay: greenhouse pre-emergence treatment, APESV; type: in vivo; conditions: scale 0 to 100
# From the text: as §2
# Stellaria media [3] = assay: greenhouse post-emergence treatment, STEME; type: in vivo; conditions: 0.500 kg/ha, scale 0 to 100
# From the text: as §1
# Viola arvensis [4] = assay: greenhouse post-emergence treatment, VIOAR; type: in vivo; conditions: 0.500 kg/ha, scale 0 to 100
# From the text: as §1
# Echinocloa crus-galli [5] = assay: greenhouse pre-emergence treatment, ECHCG; type: in vivo; conditions: scale 0 to 100
# From the text: as §2
# Setaria faberi [6] = assay: greenhouse pre-emergence treatment, SETFA; type: in vivo; conditions: scale 0 to 100
# From the text: as §2
# Lamium purpureum = assay: greenhouse pre-emergence treatment, LAMPU; type: in vivo; conditions: 0.500 kg/ha, scale 0 to 100
# From the text: as §2
# Stellaria media [7] = assay: greenhouse pre-emergence treatment, STEME; type: in vivo; conditions: 0.500 kg/ha, scale 0 to 100
# From the text: as §2
# Viola arvensis [8] = assay: greenhouse pre-emergence treatment, VIOAR; type: in vivo; conditions: 0.500 kg/ha, scale 0 to 100
# From the text: as §2
# Amaranthus retroflexus [9] = assay: greenhouse post-emergence treatment, AMARE; type: in vivo; conditions: Amaranthus retroflexus, scale 0 to 100, read-out: herbicidal activity against AMARE; for pest or weed control at 500 g/ha: 0.500 kg/ha
# From the text: as §1
# Setaria faberi [10] = assay: greenhouse post-emergence treatment, SETFA; type: in vivo; conditions: scale 0 to 100
# From the text: as §1
# Abutilon theophrasti [11] = assay: greenhouse post-emergence treatment, ABUTH; type: in vivo; conditions: 0.500 kg/ha, scale 0 to 100
# From the text: as §1
# Abutilon theophrasti [12] = assay: greenhouse pre-emergence treatment, ABUTH; type: in vivo; conditions: 0.500 kg/ha, scale 0 to 100
# From the text: as §2
# [13] = known from Archiv der Pharmazie, 1984, Vol. 317, S. 754; cited from earlier work
compound,measurement,setting,value
"COc1nc(N)nc(Nc2c(F)c(F)c(F)c(F)c2F)n1 [Example 2, 6-methoxy-N2-(2,3,4,5,6-pentafluorophenyl)-1,3,5-triazine-2,4-diamine]",herbicidal activity against ECHCG,Echinocloa crus-galli [1]; 0.500 kg/ha,very good (a very good herbicidal activity is given at values of at least 85)
same,herbicidal activity against POLCO,Polygonum convolvulus,very good (a very good herbicidal activity is given at values of at least 85)
same,herbicidal activity against SETVI,Setaria viridis,very good (a very good herbicidal activity is given at values of at least 85)
same,herbicidal activity against ALOMY,Alopecurus myosuroides; 0.125 kg/ha,good to very good
same,herbicidal activity against AMARE,Amaranthus retroflexus [2]; 0.125 kg/ha,good to very good
same,herbicidal activity against APESV,Apera spica-venti; 0.125 kg/ha,good to very good
Nc1nc(Nc2c(F)c(F)c(F)c(F)c2F)nc(OCC(F)(F)F)n1 [Example 3],herbicidal activity against SETVI,Setaria viridis,very good (a very good herbicidal activity is given at values of at least 85)
same,herbicidal activity against STEME,Stellaria media [3],very good (a very good herbicidal activity is given at values of at least 85)
same,herbicidal activity against VIOAR,Viola arvensis [4],very good (a very good herbicidal activity is given at values of at least 85)
same,herbicidal activity against AMARE,Amaranthus retroflexus [2]; 1.000 kg/ha,very good (a very good herbicidal activity is given at values of at least 85)
same,herbicidal activity against ECHCG,Echinocloa crus-galli [5]; 1.000 kg/ha,very good (a very good herbicidal activity is given at values of at least 85)
same,herbicidal activity against SETFA,Setaria faberi [6]; 1.000 kg/ha,very good (a very good herbicidal activity is given at values of at least 85)
COc1nc(N)nc(Nc2c(F)c(F)cc(F)c2F)n1 [Example 4],herbicidal activity against LAMPU,Lamium purpureum,very good (a very good herbicidal activity is given at values of at least 85)
same,herbicidal activity against STEME,Stellaria media [7],very good (a very good herbicidal activity is given at values of at least 85)
same,herbicidal activity against VIOAR,Viola arvensis [8],very good (a very good herbicidal activity is given at values of at least 85)
Nc1nc(Nc2c(F)c(F)c(F)c(F)c2F)nc(N2CCCCC2)n1 [Example 5],pest or weed control at 1000 g/ha,Amaranthus retroflexus [9]; 1.000 kg/ha,≥ 85%
same,herbicidal activity against ECHCG,Echinocloa crus-galli [1]; 1.000 kg/ha,very good (a very good herbicidal activity is given at values of at least 85)
same,herbicidal activity against SETFA,Setaria faberi [10]; 1.000 kg/ha,very good (a very good herbicidal activity is given at values of at least 85)
same,herbicidal activity against ALOMY,Alopecurus myosuroides; 1.000 kg/ha,very good (a very good herbicidal activity is given at values of at least 85)
same,herbicidal activity against AMARE,Amaranthus retroflexus [2]; 1.000 kg/ha,very good (a very good herbicidal activity is given at values of at least 85)
same,herbicidal activity against APESV,Apera spica-venti; 1.000 kg/ha,very good (a very good herbicidal activity is given at values of at least 85)
CC1CCC(C)N1c1nc(N)nc(Nc2c(F)c(F)cc(F)c2F)n1 (centres unmarked) [Example 18],herbicidal activity against AMARE,Amaranthus retroflexus [2]; 0.500 kg/ha,very good (a very good herbicidal activity is given at values of at least 85)
same,herbicidal activity against APESV,Apera spica-venti; 0.500 kg/ha,very good (a very good herbicidal activity is given at values of at least 85)
same,herbicidal activity against ECHCG,Echinocloa crus-galli [5]; 0.500 kg/ha,very good (a very good herbicidal activity is given at values of at least 85)
CON(C)c1nc(N)nc(Nc2c(F)c(F)cc(F)c2F)n1 [Example 28],herbicidal activity against ABUTH,Abutilon theophrasti [11],very good (a very good herbicidal activity is given at values of at least 85)
same,pest or weed control at 500 g/ha,Amaranthus retroflexus [9],≥ 85%
same,herbicidal activity against SETFA,Setaria faberi [10]; 0.500 kg/ha,very good (a very good herbicidal activity is given at values of at least 85)
same,herbicidal activity against ABUTH,Abutilon theophrasti [12],very good (a very good herbicidal activity is given at values of at least 85)
same,herbicidal activity against ALOMY,Alopecurus myosuroides; 0.500 kg/ha,very good (a very good herbicidal activity is given at values of at least 85)
same,herbicidal activity against AMARE,Amaranthus retroflexus [2]; 0.500 kg/ha,very good (a very good herbicidal activity is given at values of at least 85)
same,herbicidal activity against APESV,Apera spica-venti; 0.500 kg/ha,very good (a very good herbicidal activity is given at values of at least 85)
same,herbicidal activity against SETFA,Setaria faberi [6]; 0.500 kg/ha,very good (a very good herbicidal activity is given at values of at least 85)
Nc1nc(Nc2c(F)c(F)c(F)c(F)c2F)nc(N2CCC2)n1 [Example 33],herbicidal activity against ABUTH,Abutilon theophrasti [11],very good (a very good herbicidal activity is given at values of at least 85)
same,pest or weed control at 500 g/ha,Amaranthus retroflexus [9],≥ 85%
same,herbicidal activity against ECHCG,Echinocloa crus-galli [1]; 0.500 kg/ha,very good (a very good herbicidal activity is given at values of at least 85)
same,herbicidal activity against ABUTH,Abutilon theophrasti [12],very good (a very good herbicidal activity is given at values of at least 85)
same,herbicidal activity against AMARE,Amaranthus retroflexus [2]; 0.500 kg/ha,very good (a very good herbicidal activity is given at values of at least 85)
same,herbicidal activity against ECHCG,Echinocloa crus-galli [5]; 0.500 kg/ha,very good (a very good herbicidal activity is given at values of at least 85)
same,herbicidal activity against SETFA,Setaria faberi [6]; 0.500 kg/ha,very good (a very good herbicidal activity is given at values of at least 85)
Nc1nc(Nc2c(F)c(F)cc(F)c2F)nc(N2CCC2)n1 [Example 34],herbicidal activity against ABUTH,Abutilon theophrasti [11],very good (a very good herbicidal activity is given at values of at least 85)
same,pest or weed control at 500 g/ha,Amaranthus retroflexus [9],≥ 85%
same,herbicidal activity against ECHCG,Echinocloa crus-galli [1]; 0.500 kg/ha,very good (a very good herbicidal activity is given at values of at least 85)
same,herbicidal activity against ABUTH,Abutilon theophrasti [12],very good (a very good herbicidal activity is given at values of at least 85)
same,herbicidal activity against AMARE,Amaranthus retroflexus [2]; 0.500 kg/ha,very good (a very good herbicidal activity is given at values of at least 85)
same,herbicidal activity against ECHCG,Echinocloa crus-galli [5]; 0.500 kg/ha,very good (a very good herbicidal activity is given at values of at least 85)
same,herbicidal activity against SETFA,Setaria faberi [6]; 0.500 kg/ha,very good (a very good herbicidal activity is given at values of at least 85)
"CC(C)Nc1nc(Nc2ccccc2F)nc(NC(C)C)n1 [N6-(2-fluorophenyl)-N2,N4-diisopropyl-1,3,5-triazine-2,4,6-triamine]",trichomonacidal activity,[13],shows trichomonacidal activity
